Earlier results, collected in paper PMC7583271 (Journal of Insect Science, 2020).

Target: antennal binding protein (PxylABP, accession no. AB189031.1)
Details: unit inferred, ref Deng et al. 2016

Which Kd does the source give for C=CCN=C=S [Allyl isothiocyanate] here?
Its Kd is 910 nM.
